Results: the NIST ThermoML archive (doi:10.1016/j.tca.2013.05.017)
Several values for one entry are separate records, joined by “and”; a condition that tells them apart may be missing. Equal entries are not always repeated.

Test: molar heat capacity at constant pressure
Conditions: 101.33 kPa, Crystal 2, Small (less than 1 g) adiabatic calorimetry

O=S(=O)([O-])[O-].[Sr+2] [sulfuric acid, strontium salt (1:1)]
Conditions	molar heat capacity at constant pressure
5 K	0.03816 J/K/mol
5.083 K	0.04505 J/K/mol
5.422 K	0.04233 J/K/mol
5.622 K	0.05543 J/K/mol
5.831 K	0.05464 J/K/mol
6.044 K	0.06693 J/K/mol
6.285 K	0.07062 J/K/mol
6.354 K	0.08024 J/K/mol
6.677 K	0.09728 J/K/mol
6.759 K	0.1018 J/K/mol
7.066 K	0.1205 J/K/mol
7.169 K	0.1252 J/K/mol
7.482 K	0.1475 J/K/mol
7.591 K	0.1545 J/K/mol
7.904 K	0.1777 J/K/mol
8.021 K	0.1873 J/K/mol
8.33 K	0.2151 J/K/mol
8.448 K	0.2273 J/K/mol
8.763 K	0.2543 J/K/mol
8.881 K	0.2707 J/K/mol
9.197 K	0.3046 J/K/mol
9.317 K	0.3217 J/K/mol
9.635 K	0.3631 J/K/mol
9.755 K	0.3798 J/K/mol
10 K	0.4163 J/K/mol
10.08 K	0.427 J/K/mol
10.2 K	0.4451 J/K/mol
10.75 K	0.543 J/K/mol
10.86 K	0.5647 J/K/mol
11.64 K	0.7154 J/K/mol
11.75 K	0.7406 J/K/mol
12.54 K	0.9194 J/K/mol
12.65 K	0.9503 J/K/mol
13.45 K	1.16 J/K/mol
13.55 K	1.197 J/K/mol
14.36 K	1.446 J/K/mol
14.47 K	1.484 J/K/mol
15 K	1.665 J/K/mol
15.29 K	1.771 J/K/mol
15.39 K	1.813 J/K/mol
16.22 K	2.105 J/K/mol
16.32 K	2.148 J/K/mol
17.16 K	2.488 J/K/mol
17.26 K	2.531 J/K/mol
18.1 K	2.928 J/K/mol
18.2 K	2.96 J/K/mol
19.05 K	3.383 J/K/mol
19.14 K	3.432 J/K/mol
20 K	3.864 J/K/mol
20.01 K	3.84 J/K/mol
20.1 K	3.907 J/K/mol
21.44 K	4.638 J/K/mol
21.53 K	4.687 J/K/mol
23.36 K	5.734 J/K/mol
23.44 K	5.783 J/K/mol
25 K	6.782 J/K/mol
25.3 K	6.945 J/K/mol
25.37 K	6.99 J/K/mol
27.25 K	8.25 J/K/mol
27.32 K	8.313 J/K/mol
29.2 K	9.624 J/K/mol
30 K	10.21 J/K/mol
30.75 K	10.74 J/K/mol
31.17 K	11.03 J/K/mol
32.62 K	12.1 J/K/mol
33.14 K	12.44 J/K/mol
34.6 K	13.58 J/K/mol
34.76 K	13.71 J/K/mol
35 K	13.95 J/K/mol
35.1 K	13.99 J/K/mol
36.58 K	15.12 J/K/mol
36.73 K	15.23 J/K/mol
37.07 K	15.51 J/K/mol
38.55 K	16.71 J/K/mol
38.7 K	16.81 J/K/mol
40 K	17.87 J/K/mol
40.53 K	18.29 J/K/mol
40.68 K	18.39 J/K/mol
42.52 K	19.85 J/K/mol
42.65 K	19.96 J/K/mol
44.51 K	21.4 J/K/mol
44.63 K	21.49 J/K/mol
45 K	21.83 J/K/mol
46.49 K	22.95 J/K/mol
46.61 K	23 J/K/mol
48.48 K	24.46 J/K/mol
48.59 K	24.49 J/K/mol
50 K	25.73 J/K/mol
50.48 K	26 J/K/mol
50.57 K	26.02 J/K/mol
52.46 K	27.61 J/K/mol
52.55 K	27.61 J/K/mol
54.45 K	29.14 J/K/mol
54.52 K	29.14 J/K/mol
55 K	29.5 J/K/mol
56.45 K	30.48 J/K/mol
56.51 K	30.49 J/K/mol
58.44 K	31.73 J/K/mol
58.49 K	31.79 J/K/mol
60 K	33.05 J/K/mol
60.44 K	33.28 J/K/mol
60.48 K	33.28 J/K/mol
62.43 K	34.65 J/K/mol
62.46 K	34.66 J/K/mol
64.42 K	35.97 J/K/mol
64.44 K	35.9 J/K/mol
65 K	36.36 J/K/mol
66.35 K	37.12 J/K/mol and 37.15 J/K/mol
68.19 K	38.26 J/K/mol
68.21 K	38.27 J/K/mol
69.98 K	39.31 J/K/mol
70 K	39.32 J/K/mol and 39.45 J/K/mol
72.35 K	40.74 J/K/mol
72.39 K	40.75 J/K/mol
75 K	42.32 J/K/mol
75.34 K	42.37 J/K/mol
75.41 K	42.41 J/K/mol
78.33 K	43.98 J/K/mol
78.44 K	44.04 J/K/mol
79.87 K	44.73 J/K/mol
80 K	44.96 J/K/mol
81.29 K	45.47 J/K/mol
81.33 K	45.52 J/K/mol
81.48 K	45.58 J/K/mol
83.56 K	46.57 J/K/mol
84.99 K	47.25 J/K/mol
85 K	47.4 J/K/mol
85.53 K	47.51 J/K/mol
85.54 K	47.52 J/K/mol
86.61 K	48.03 J/K/mol
88.05 K	48.76 J/K/mol
89.26 K	49.19 J/K/mol
89.28 K	49.23 J/K/mol
89.67 K	49.42 J/K/mol
90 K	49.69 J/K/mol
92.33 K	50.55 J/K/mol
92.35 K	50.59 J/K/mol
92.74 K	50.75 J/K/mol
95 K	51.83 J/K/mol
95.41 K	51.85 J/K/mol
95.43 K	51.89 J/K/mol
95.81 K	52.06 J/K/mol
98.5 K	53.08 J/K/mol
98.51 K	53.12 J/K/mol
98.89 K	53.27 J/K/mol
100 K	53.84 J/K/mol
101.59 K	54.27 J/K/mol
101.61 K	54.31 J/K/mol
101.98 K	54.46 J/K/mol
104.69 K	55.44 J/K/mol
104.71 K	55.47 J/K/mol
105.08 K	55.61 J/K/mol
107.8 K	56.58 J/K/mol
107.82 K	56.6 J/K/mol
108.19 K	56.76 J/K/mol
110 K	57.52 J/K/mol
110.92 K	57.67 J/K/mol
110.94 K	57.74 J/K/mol
111.31 K	57.81 J/K/mol
114.04 K	58.72 J/K/mol
114.06 K	58.77 J/K/mol
114.43 K	58.88 J/K/mol
117.18 K	59.76 J/K/mol
117.2 K	59.81 J/K/mol
117.56 K	59.97 J/K/mol
120 K	60.88 J/K/mol
120.32 K	60.79 J/K/mol
120.33 K	60.87 J/K/mol
120.71 K	60.96 J/K/mol
123.46 K	61.8 J/K/mol
123.49 K	61.84 J/K/mol
123.85 K	61.96 J/K/mol
126.62 K	62.8 J/K/mol
126.64 K	62.83 J/K/mol
127.01 K	62.93 J/K/mol
129.77 K	63.78 J/K/mol
129.8 K	63.86 J/K/mol
130 K	64.04 J/K/mol
130.19 K	63.91 J/K/mol
132.94 K	64.72 J/K/mol
132.97 K	64.77 J/K/mol
133.35 K	64.93 J/K/mol
136.13 K	65.69 J/K/mol
136.16 K	65.79 J/K/mol
136.53 K	65.82 J/K/mol
139.32 K	66.68 J/K/mol
139.35 K	66.65 J/K/mol
139.72 K	66.8 J/K/mol
140 K	67.03 J/K/mol
142.51 K	67.53 J/K/mol
142.54 K	67.62 J/K/mol
142.91 K	67.65 J/K/mol
